In this assay the target is T1, Full-length, GST-tagged, human CaMKIIδ (Homo sapiens, UniProt Q13557).
T1 construct: Full-Length, Glutathione-S-Transferase(GST)-Tagged, Human CaMKIIδ was purchased from Carna Biosciences; purchased Carna Biosciences 02-111
T1 sequence (Q13557 1-478 isoform Q13557-12): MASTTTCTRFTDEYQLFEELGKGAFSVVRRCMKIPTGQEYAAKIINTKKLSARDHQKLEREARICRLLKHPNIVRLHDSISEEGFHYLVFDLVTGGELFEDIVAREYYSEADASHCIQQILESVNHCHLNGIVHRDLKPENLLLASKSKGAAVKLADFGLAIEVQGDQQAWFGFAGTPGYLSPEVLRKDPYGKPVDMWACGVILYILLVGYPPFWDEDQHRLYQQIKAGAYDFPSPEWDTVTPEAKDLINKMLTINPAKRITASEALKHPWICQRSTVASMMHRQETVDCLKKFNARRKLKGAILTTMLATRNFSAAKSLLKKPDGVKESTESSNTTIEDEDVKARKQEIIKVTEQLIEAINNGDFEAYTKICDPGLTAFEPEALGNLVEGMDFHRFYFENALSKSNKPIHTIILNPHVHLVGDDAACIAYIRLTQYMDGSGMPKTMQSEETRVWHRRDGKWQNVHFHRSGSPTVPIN
Nature of the assay: CaMKIIδ binding assay (TR-FRET with BODIPY-labeled probe ligand). Conditions: CaMKIIδ binding assay; activity class per Table 2. In short, it runs like this:
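Compounds were tested as 4-fold, eight-point series for 1 hr at room temperature, and IC50 was obtained by logistic fitting against a 3 μM parent-compound control. Signal came from displacement of a 300 nM BODIPY ligand from 0.5 nM GST-CaMKIIδ, detected via Tb-anti-GST in calmodulin/Ca2+ (pH 7.6).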
On to `C[C@@H](Cn1cnnn1)Oc1cc(-c2cnc(Nc3cn([C@H]4C[C@H](N5CCOCC5)C4)nc3OCC(F)(F)F)nc2)ccc1Cl` [Example 943, 5-(3-(((S)-1-(1H-tetrazol-1-yl)propan-2-yl)oxy)-4-chlorophenyl)-N-(1-(trans-3-morpholinocyclobutyl)-3-(2,2,2-trifluoroethoxy)-1H-pyrazol-4-yl)pyrimidin-2-amine], for which the IC50 is less than 10 nM.
Then `[2H]C1(N2CC3(CC(n4cc(Nc5ncc(-c6ccc(Cl)c(O[C@@H](C)Cn7cnnn7)c6)cn5)c(OCC(F)(F)F)n4)C3)C2)CCOCC1` [Example 944, 5-(4-chloro-3-{[(2S)-1-(1H-tetrazol-1-yl)propan-2-yl]oxy}phenyl)-N-(1-{2-[(4-^2H)tetrahydro-2H-pyran-4-yl]-2-azaspiro[3.3]heptan-6-yl}-3-(2,2,2-trifluoroethoxy)-1H-pyrazol-4-yl)pyrimidin-2-amine], with less than 10 nM; and `C[C@@H](Cn1cnnn1)Oc1cc(-c2cnc(Nc3cn(C4CC5(C4)CN(C4CCC4)C5)nc3OC3COC3)nc2)ccc1Cl` [Example 945, (S)-5-(3-((1-(1H-tetrazol-1-yl)propan-2-yl)oxy)-4-chlorophenyl)-N-(1-(2-cyclobutyl-2-azaspiro[3.3]heptan-6-yl)-3-(oxetan-3-yloxy)-1H-pyrazol-4-yl)pyrimidin-2-amine], with less than 10 nM; and `CC(C)c1nn(C2CC3(C2)CN(CC(C)(C)O)C3)cc1Nc1ncc(-c2ccc(Cl)c(O[C@@H](C)Cn3cnnn3)c2)cn1` [Example 947, (S)-1-(6-(4-((5-(3-((1-(1H-tetrazol-1-yl)propan-2-yl)oxy)-4-chlorophenyl)pyrimidin-2-yl)amino)-3-isopropyl-1H-pyrazol-1-yl)-2-azaspiro[3.3]heptan-2-yl)-2-methylpropan-2-ol], with less than 10 nM.
Then `C[C@@H](Cn1cnnn1)Oc1cc(-c2cnc(Nc3cn(C4CC5(C4)CN(C(=O)OC(C)(C)C)C5)nc3OCC(F)(F)F)nc2)ccc1C(F)F` [Example 948, tert-butyl (S)-6-(4-((5-(3-((1-(1H-tetrazol-1-yl)propan-2-yl)oxy)-4-(difluoromethyl)phenyl)pyrimidin-2-yl)amino)-3-(2,2,2-trifluoroethoxy)-1H-pyrazol-1-yl)-2-azaspiro[3.3]heptane-2-carboxylate], with no less than 100 nM.
Then `C[C@@H](Cn1cnnn1)Oc1cc(-c2cnc(Nc3cn(C4CC5(CNC5)C4)nc3OCC(F)(F)F)nc2)ccc1C(F)F` [Example 949, (S)-5-(3-((1-(1H-tetrazol-1-yl)propan-2-yl)oxy)-4-(difluoromethyl)phenyl)-N-(1-(2-azaspiro[3.3]heptan-6-yl)-3-(2,2,2-trifluoroethoxy)-1H-pyrazol-4-yl)pyrimidin-2-amine], with less than 10 nM.
In turn, `C[C@@H](Cn1cnnn1)Oc1cc(-c2cnc(Nc3cn(C4CC5(C4)CN(C4COC4)C5)nc3OCC(F)(F)F)nc2)ccc1C(F)F` [Example 950, (S)-5-(3-((1-(1H-tetrazol-1-yl)propan-2-yl)oxy)-4-(difluoromethyl)phenyl)-N-(1-(2-(oxetan-3-yl)-2-azaspiro[3.3]heptan-6-yl)-3-(2,2,2-trifluoroethoxy)-1H-pyrazol-4-yl)pyrimidin-2-amine] had an IC50 of less than 10 nM.
The result for `C[C@@H](Cn1cnnn1)Oc1cc(-c2cnc(Nc3cn(C4CC5(C4)CN(c4ncccn4)C5)nc3OCC(F)(F)F)nc2)ccc1Cl` [Example 952, (S)-5-(3-((1-(1H-tetrazol-1-yl)propan-2-yl)oxy)-4-chlorophenyl)-N-(1-(2-(pyrimidin-2-yl)-2-azaspiro[3.3]heptan-6-yl)-3-(2,2,2-trifluoroethoxy)-1H-pyrazol-4-yl)pyrimidin-2-amine] reads less than 10 nM; that for `CCC1(N2CC3(CC(n4cc(Nc5ncc(-c6ccc(Cl)c(O[C@@H](C)Cn7cnnn7)c6)cn5)c(C(C)C)n4)C3)C2)CCOCC1` [Example 953, (S)-5-(3-((1-(1H-tetrazol-1-yl)propan-2-yl)oxy)-4-chlorophenyl)-N-(1-(2-(4-ethyltetrahydro-2H-pyran-4-yl)-2-azaspiro[3.3]heptan-6-yl)-3-isopropyl-1H-pyrazol-4-yl)pyrimidin-2-amine], less than 10 nM.
The result for `C[C@@H](Cn1cnnn1)Oc1cc(-c2cnc(Nc3cn(C4CC5(C4)CN(C4(C)CCOC4)C5)nc3OCC(F)(F)F)nc2)ccc1Cl` (stereo partly drawn) [Example 954, 5-(3-(((S)-1-(1H-tetrazol-1-yl)propan-2-yl)oxy)-4-chlorophenyl)-N-(1-(2-(3-methyltetrahydrofuran-3-yl)-2-azaspiro[3.3]heptan-6-yl)-3-(2,2,2-trifluoroethoxy)-1H-pyrazol-4-yl)pyrimidin-2-amine] reads less than 10 nM.
The result for `CCC1(N2CC3(CC(n4cc(Nc5ncc(-c6ccc(Cl)c(O[C@@H](C)Cn7cnnn7)c6)cn5)c(OCC(F)(F)F)n4)C3)C2)CCOCC1` [Example 955, (S)-5-(3-((1-(1H-tetrazol-1-yl)propan-2-yl)oxy)-4-chlorophenyl)-N-(1-(2-(4-ethyltetrahydro-2H-pyran-4-yl)-2-azaspiro[3.3]heptan-6-yl)-3-(2,2,2-trifluoroethoxy)-1H-pyrazol-4-yl)pyrimidin-2-amine] reads less than 10 nM; that for `CC(C)c1nn(C2CC3(C2)CN(C2(C)CCOC2)C3)cc1Nc1ncc(-c2ccc(Cl)c(O[C@@H](C)Cn3cnnn3)c2)cn1` (stereo partly drawn) [Example 956, 5-(3-(((S)-1-(1H-tetrazol-1-yl)propan-2-yl)oxy)-4-chlorophenyl)-N-(3-isopropyl-1-(2-(3-methyltetrahydrofuran-3-yl)-2-azaspiro[3.3]heptan-6-yl)-1H-pyrazol-4-yl)pyrimidin-2-amine], less than 10 nM; that for `CCC(=O)c1nn(C2CC3(C2)CN(C2CCOCC2)C3)cc1Nc1ncc(-c2ccc(Cl)c(O[C@@H](C)Cn3cnnn3)c2)cn1` [Example 958, (S)-1-(4-((5-(3-((1-(1H-tetrazol-1-yl)propan-2-yl)oxy)-4-chlorophenyl)pyrimidin-2-yl)amino)-1-(2-(tetrahydro-2H-pyran-4-yl)-2-azaspiro[3.3]heptan-6-yl)-1H-pyrazol-3-yl)propan-1-one], less than 10 nM.
With `C[C@@H](Cn1cnnn1)Oc1cc(-c2cnc(Nc3cn(C4CC5(C4)CN(C4CCOCC4)C5)nc3C(F)(F)C(F)(F)F)nc2)ccc1Cl` [Example 959, (S)-5-(3-((1-(1H-tetrazol-1-yl)propan-2-yl)oxy)-4-chlorophenyl)-N-(3-(perfluoroethyl)-1-(2-(tetrahydro-2H-pyran-4-yl)-2-azaspiro[3.3]heptan-6-yl)-1H-pyrazol-4-yl)pyrimidin-2-amine], the half-inhibitory concentration (IC50) is less than 10 nM.
As for `CC(C)c1nn(C2CC3(C2)CN(C2(C)CCOCC2)C3)cc1Nc1ncc(-c2ccc(Cl)c(O[C@@H](C)Cn3cnnn3)c2)cn1` [Example 960, (S)-5-(3-((1-(1H-tetrazol-1-yl)propan-2-yl)oxy)-4-chlorophenyl)-N-(3-isopropyl-1-(2-(4-methyltetrahydro-2H-pyran-4-yl)-2-azaspiro[3.3]heptan-6-yl)-1H-pyrazol-4-yl)pyrimidin-2-amine], the half-inhibitory concentration (IC50) was less than 10 nM.
Turning to `C[C@@H](Cn1cnnn1)Oc1cc(-c2cnc(Nc3cn(C4CC5(C4)CN(C4COCOC4)C5)nc3OCC(F)(F)F)nc2)ccc1Cl` [Example 965, (S)—N-(1-(2-(1,3-dioxan-5-yl)-2-azaspiro[3.3]heptan-6-yl)-3-(2,2,2-trifluoroethoxy)-1H-pyrazol-4-yl)-5-(3-((1-(1H-tetrazol-1-yl)propan-2-yl)oxy)-4-chlorophenyl)pyrimidin-2-amine], the IC50 was less than 10 nM.

(Values after patent publication US10543212B2, “Substituted amines for treating cardiac diseases” (Cardurion Pharmaceuticals, LLC, priority 2017, dated 2020).)
